Experimental findings from patent publication US10246446B2, “Blockers of the growth hormone receptor in disease prevention and treatment” (UNIVERSITY OF SOUTHERN CALIFORNIA, priority 2015, dated 2019) are described below.

Type in all cases: cell-based
Experiment [1] concerns the target T1, human GHR (Homo sapiens, UniProt P10912).
T1 construct: expressed in transfected cells; HEK293 according to the assay procedure
T1 sequence (P10912 19-638): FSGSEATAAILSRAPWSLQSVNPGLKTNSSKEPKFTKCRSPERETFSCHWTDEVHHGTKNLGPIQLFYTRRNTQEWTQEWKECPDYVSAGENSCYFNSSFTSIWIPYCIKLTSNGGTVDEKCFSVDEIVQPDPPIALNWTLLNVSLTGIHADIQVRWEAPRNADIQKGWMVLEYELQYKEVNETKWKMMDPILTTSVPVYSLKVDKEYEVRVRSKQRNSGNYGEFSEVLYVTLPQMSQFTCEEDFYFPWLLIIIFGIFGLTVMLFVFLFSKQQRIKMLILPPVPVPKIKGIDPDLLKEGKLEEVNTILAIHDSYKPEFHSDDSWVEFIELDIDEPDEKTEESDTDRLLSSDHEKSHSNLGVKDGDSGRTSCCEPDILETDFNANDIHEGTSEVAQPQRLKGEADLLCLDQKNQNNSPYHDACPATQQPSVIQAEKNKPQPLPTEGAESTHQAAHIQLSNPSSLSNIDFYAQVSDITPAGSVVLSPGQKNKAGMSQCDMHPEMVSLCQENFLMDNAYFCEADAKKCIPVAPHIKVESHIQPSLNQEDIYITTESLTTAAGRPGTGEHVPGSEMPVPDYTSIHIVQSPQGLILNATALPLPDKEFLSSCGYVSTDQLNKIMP
In words: c-fos reporter luciferase assay, GH-stimulated cells. To be noted: for GH induced increase in c-fos reporter activity: FIG. 5A; for c-fos reporter activity, % of untreated controls: cells serum starved, incubated with test compound (10 μM), treated with GH, normalized to renilla luciferase. How it is done: FIG. 5A. Lead compounds (#34, 37, 38) identified by luciferase reporter assays. Mouse L cells expressing human GHR were transfected with c-fos or SOCS2 reporter luciferase plasmids. Cells were serum starved, incubated with test compounds (#34, 37, 38) and then treated with GH. Data are normalized to co-transfected CMV-driven renilla luciferase and expressed as relative light units (RLU). (A) c-fos reporter luciferase activity.
(§1) In order to perform high throughput screening (HTS) for inhibitors of GHR, HEK293 cell lines permanently transfected were established with a luciferase reporter driven by either c-fos or SOCS2 promoter (FIG. 7).
(§2) The SOCS (Suppressor of Cytokine Signaling) proteins are induced by GH and act as negative regulators of cytokine signaling pathways. […] Luciferase reporter constructs where the luciferase gene is under the control of promoters of either SOCS2 or c-fos have been stably transfected into human embryonic kidney, HEK293 cells. Cells were serum starved (0.5% FBS) for 24 hours to prevent interference by other growth factors and then treated with 5 or 10 nM hGH (established in dose response studies) and 10 μM of each test compound for 24 hours. This is followed by lysis and analysis of luciferase activity using the luciferase reporter assay (Promega). Each compound is tested in triplicate in a 96 well plate format.

Experiment [2] has as its target T1, human GHR. In words: SOCS2 reporter luciferase assay, GH-stimulated cells. To be noted: for GH induced increase in SOCS2 reporter activity: FIG. 5B; for SOCS2 reporter activity, % of untreated controls: cells serum starved, incubated with test compound (10 μM), treated with GH, normalized to renilla luciferase. How it is done: FIG. 5B. Lead compounds (#34, 37, 38) identified by luciferase reporter assays. Mouse L cells expressing human GHR were transfected with c-fos or SOCS2 reporter luciferase plasmids. Cells were serum starved, then incubated with test compounds (#34, 37, 38) before GH treatment. Data were normalized to co-transfected CMV-driven renilla luciferase and expressed as relative light units (RLU). (B) SOCS2 reporter luciferase activity.
FIG. 7. High throughput screening (HTS) platform for the identification of GHR inhibitors. Mouse L cells expressing human GHR were transfected with SOCS2 reporter luciferase plasmids. Cells were serum starved, pre-treated with test compounds (numbered as shown) and then GH. Data are normalized to CMV renilla luciferase and expressed as relative light units (RLU).
as §1, §2

Experiment [3] concerns human GHR. In words: STAT5 phosphorylation assay (western blot), small molecules. To be noted: mouse L cells expressing human GHR; compound 30 min prior to 5 nM hGH; FIG. 6. How it is done:
FIG. 6. […] (A) Mouse L cells were incubated in 0.5% serum for 24 hours. Cells were treated with compounds 34, 37 or 38 for 30 min prior to 5 nM hGH treatment. The growth hormone antagonist (GHA) was used as a positive control.
The JAK/STAT signaling pathway is the principal signaling mechanism for a variety of growth factors and cytokines. In the growth hormone signaling pathway, dimerization of the GHR in response to GH binding leads to the activation of JAK by transphosphorylation. Activated JAK phosphorylates STAT5, which can then enter the nucleus and activate transcription of target genes. Inhibition of STAT5 phosphorylation will be used to analyze GHR antagonistic properties of the test compounds.
Mouse L fibroblasts engineered to express […] were obtained from Dr. John Kopchick. Serum starved L cells (0.5% FBS for 24 hours) were pre-treated for 30 minutes with 10 μM of each compound identified as a hit from the luciferase assays. Following this, cells were treated with 5 or 10 nM hGH for 10 minutes. Cells were collected and processed for western blotting with phospho-STAT5 and total STAT5 antibodies (Cell Signaling). The GHR antagonist, G120K is used as a positive control. Band intensity was analyzed using ImageJ and STAT5 phosphorylation normalized to total STAT5 levels. Compounds that inhibited STAT5 phosphorylation were selected for further drug optimization.
A general note: Immunoblotting shows a protein as a band on a membrane.

On to `O=C(Nc1cccc(S(=O)(=O)N2CCCCCC2)c1)c1ccco1` [Compound 34], for which, on human GHR [1], the “GH induced increase in c-fos reporter activity” value is reported as “inhibited” and the “c-fos reporter activity, % of untreated controls” value worked out at 57%. Moreover, on human GHR [2], the “GH induced increase in SOCS2 reporter activity” value is “inhibited” and the “SOCS2 reporter activity, % of untreated controls” value is reported as 76%. Moreover, the “GH induced phosphorylation of STAT5” value in the experiment on human GHR [3] is “able to inhibit phosphorylation of STAT5”.
As to `CNS(=O)(=O)c1cc(NC(=O)c2ccc(CSc3ccccc3)o2)ccc1C` [Compound 37], on human GHR [1], the “GH induced increase in c-fos reporter activity” value is recorded as “inhibited” and the “c-fos reporter activity, % of untreated controls” value is 27%. Further, on human GHR [2], the “GH induced increase in SOCS2 reporter activity” value was “inhibited” and the “SOCS2 reporter activity, % of untreated controls” value is recorded as 61%. For the same molecule, the “GH induced phosphorylation of STAT5” value in the experiment with human GHR [3] is reported as “able to inhibit phosphorylation of STAT5”.
